From ChEMBL document CHEMBL4699664, “Rational Design of 2-Chloroadenine Derivatives as Highly Selective Phosphodiesterase 8A Inhibitors” (J Med Chem, 2020)
Values after ≈ are worked out from the molar mass of the structure shown. Active and inactive are the calls of the source. No cut-off for these calls is given here.

What was measured:
Mus musculus [1] = experiment: Anti-VaD activity against UCCAO-induced spatial memory deficient C57BL/6J mouse model assessed as improvement in spatial learning and memory by measuring increased the residence time in the platform area at 1 mg/kg, po administered for 21 days by Morris water maze test; format: functional, organism-based; conditions: time 21.0 day
Mus musculus [2] = experiment: Anti-VaD activity against UCCAO-induced spatial memory deficient C57BL/6J mouse model assessed as improvement in spatial learning and memory by measuring increased the frequency of platform site crossing at 1 mg/kg, po administered for 21 days by Morris water maze test; format: functional, organism-based; conditions: time 21.0 day
Mus musculus [3] = experiment: Anti-VaD activity against UCCAO-induced spatial memory deficient C57BL/6J mouse model assessed as improvement in spatial learning and memory by measuring increase in latency time at 1 mg/kg, po administered for 21 days by passive avoidance test; format: functional, organism-based; conditions: time 21.0 day
Mus musculus [4] = experiment: Anti-VaD activity against UCCAO-induced spatial memory deficient C57BL/6J mouse model assessed as improvement in spatial learning and memory by measuring reduction in escape latency at 1 mg/kg, po administered for 21 days by Morris water maze test; format: functional, organism-based; conditions: time 21.0 day
Mus musculus [5] = experiment: Anti-VaD activity against UCCAO-induced spatial memory deficient C57BL/6J mouse model assessed as improvement in spatial learning and memory by measuring decrease in error rate at 1 mg/kg, po administered for 21 days by passive avoidance test; format: functional, organism-based; conditions: time 21.0 day
[6] = target: T1, High affinity cAMP-specific and IBMX-insensitive 3',5'-cyclic phosphodiesterase 8A (Homo sapiens, UniProt O60658); experiment: Inhibition of PDE8A1 (480 to 820 residues) (unknown origin) expressed in Escherichia coli BL21 using [3H]-cAMP substrate incubated for 15 mins by liquid scintillation counting method
T1 sequence (O60658 whole entry, the tested form may be a part): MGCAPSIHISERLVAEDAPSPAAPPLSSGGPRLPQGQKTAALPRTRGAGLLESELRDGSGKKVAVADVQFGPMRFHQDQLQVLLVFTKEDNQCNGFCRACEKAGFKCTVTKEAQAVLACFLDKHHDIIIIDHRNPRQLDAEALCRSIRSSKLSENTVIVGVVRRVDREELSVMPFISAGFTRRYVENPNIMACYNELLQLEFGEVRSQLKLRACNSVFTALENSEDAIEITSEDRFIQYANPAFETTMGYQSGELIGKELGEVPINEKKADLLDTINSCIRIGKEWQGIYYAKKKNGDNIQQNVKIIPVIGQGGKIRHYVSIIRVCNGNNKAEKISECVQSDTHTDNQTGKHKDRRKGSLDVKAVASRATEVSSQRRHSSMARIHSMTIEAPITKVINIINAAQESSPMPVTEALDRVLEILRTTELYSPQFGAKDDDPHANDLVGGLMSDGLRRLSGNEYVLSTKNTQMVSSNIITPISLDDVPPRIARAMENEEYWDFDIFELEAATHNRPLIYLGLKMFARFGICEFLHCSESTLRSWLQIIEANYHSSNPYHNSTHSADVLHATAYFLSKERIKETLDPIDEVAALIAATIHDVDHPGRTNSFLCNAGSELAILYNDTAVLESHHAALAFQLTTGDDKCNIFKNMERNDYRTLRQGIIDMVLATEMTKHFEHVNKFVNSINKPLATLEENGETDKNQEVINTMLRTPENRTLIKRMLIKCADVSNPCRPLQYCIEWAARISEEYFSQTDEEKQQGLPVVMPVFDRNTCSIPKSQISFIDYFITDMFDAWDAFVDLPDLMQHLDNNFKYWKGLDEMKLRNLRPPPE

[7] = target: T1, High affinity cAMP-specific and IBMX-insensitive 3',5'-cyclic phosphodiesterase 8A; experiment: Inhibition of PDE8A1 (480 to 820 residues) (unknown origin) expressed in Escherichia coli BL21 using [3H]-cAMP substrate at 1 uM incubated for 15 mins by liquid scintillation counting method relative to control
[8] = AUC (0 to infinity) in Sprague-Dawley rat at 2.5 mg/kg, iv measured upto 24 hrs by LC-MS/MS analysis; format: ADME, organism-based; parameters: route intravenous, dose 2.5 mg/kg, time <=24; conditions: in vivo
[9] = AUC (0 to t) in Sprague-Dawley rat at 2.5 mg/kg, iv measured upto 24 hrs by LC-MS/MS analysis; format: ADME, organism-based; parameters: route intravenous, dose 2.5 mg/kg, time <=24; conditions: in vivo
[10] = target: Dual 3',5'-cyclic-AMP and -GMP phosphodiesterase 11A (Homo sapiens, UniProt Q9HCR9); experiment: Inhibition of PDE11A (588-911 residues) (unknown origin) expressed in Escherichia coli BL21 using [3H]-cAMP substrate incubated for 15 mins by liquid scintillation counting method
Chain of Dual 3',5'-cyclic-AMP and -GMP phosphodiesterase 11A (Q9HCR9 whole entry, the tested form may be a part): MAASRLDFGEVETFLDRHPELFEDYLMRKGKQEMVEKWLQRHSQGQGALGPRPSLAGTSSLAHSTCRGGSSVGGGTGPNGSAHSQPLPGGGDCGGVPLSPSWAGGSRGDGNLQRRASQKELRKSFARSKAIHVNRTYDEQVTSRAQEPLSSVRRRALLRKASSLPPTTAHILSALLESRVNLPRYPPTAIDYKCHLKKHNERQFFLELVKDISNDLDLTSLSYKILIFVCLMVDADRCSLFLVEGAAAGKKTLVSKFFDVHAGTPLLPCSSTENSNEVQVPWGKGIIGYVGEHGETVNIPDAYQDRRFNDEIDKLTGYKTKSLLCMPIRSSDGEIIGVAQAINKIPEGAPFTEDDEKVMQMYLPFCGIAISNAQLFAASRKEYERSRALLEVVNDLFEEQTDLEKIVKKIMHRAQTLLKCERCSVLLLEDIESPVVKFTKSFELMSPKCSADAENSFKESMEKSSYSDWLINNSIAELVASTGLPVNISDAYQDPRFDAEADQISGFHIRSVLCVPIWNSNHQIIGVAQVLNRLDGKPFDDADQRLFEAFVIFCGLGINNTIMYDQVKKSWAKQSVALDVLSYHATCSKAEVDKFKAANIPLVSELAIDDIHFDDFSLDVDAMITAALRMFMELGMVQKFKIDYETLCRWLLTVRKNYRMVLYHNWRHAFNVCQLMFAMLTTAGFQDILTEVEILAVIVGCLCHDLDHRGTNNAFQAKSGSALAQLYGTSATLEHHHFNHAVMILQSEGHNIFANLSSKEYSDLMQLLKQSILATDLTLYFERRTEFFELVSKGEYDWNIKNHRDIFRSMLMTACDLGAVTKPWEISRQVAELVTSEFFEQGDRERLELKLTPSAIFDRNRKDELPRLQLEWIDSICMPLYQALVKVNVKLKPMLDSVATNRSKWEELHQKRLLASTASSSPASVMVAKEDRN

Cytochrome P450 2D6 = Cytochrome P450 2D6 (Homo sapiens, UniProt P10635); experiment: Inhibition of CYP2D6 in human liver microsomes in presence of NADPH; format: ADME
Mus musculus [11] = experiment: Anti-VaD activity against UCCAO-induced spatial memory deficient C57BL/6J mouse model assessed as improvement in spatial learning and memory by measuring decrease in error rate at 3 mg/kg, po administered for 21 days by passive avoidance test; format: functional, organism-based; conditions: time 21.0 day
[12] = Lipophilicity, log P of the compound; format: physicochemical; conditions: octanol/water
Cytochrome P450 1A2 = target: T2, Cytochrome P450 1A2 (Homo sapiens, UniProt P05177); experiment: Inhibition of CYP1A2 in human liver microsomes in presence of NADPH; format: ADME
T2 sequence (P05177 whole entry): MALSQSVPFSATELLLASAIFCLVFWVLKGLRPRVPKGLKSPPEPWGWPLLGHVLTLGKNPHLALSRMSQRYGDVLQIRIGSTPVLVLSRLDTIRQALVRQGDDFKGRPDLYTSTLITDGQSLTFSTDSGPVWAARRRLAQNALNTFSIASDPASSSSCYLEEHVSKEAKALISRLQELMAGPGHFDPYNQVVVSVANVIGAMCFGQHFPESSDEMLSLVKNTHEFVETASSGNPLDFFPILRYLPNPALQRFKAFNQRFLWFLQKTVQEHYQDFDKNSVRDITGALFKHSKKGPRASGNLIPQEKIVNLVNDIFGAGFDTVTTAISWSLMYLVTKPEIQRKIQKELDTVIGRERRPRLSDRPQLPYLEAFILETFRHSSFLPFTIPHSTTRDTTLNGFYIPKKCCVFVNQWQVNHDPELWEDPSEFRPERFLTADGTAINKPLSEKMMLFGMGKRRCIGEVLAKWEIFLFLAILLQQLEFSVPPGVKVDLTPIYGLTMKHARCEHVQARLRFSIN

[13] = Inhibition of PDE5A1 (535-860 residues) (unknown origin) expressed in Escherichia coli BL21 using [3H]-cAMP substrate incubated for 15 mins by liquid scintillation counting method; parameters: species or system Homo sapiens
[14] = Dissociation constant, pKa of the compound; format: physicochemical
[15] = Half life in Sprague-Dawley rat at 2.5 mg/kg, iv measured upto 24 hrs by LC-MS/MS analysis; format: ADME, organism-based; conditions: in vivo
[16] = target: Voltage-gated inwardly rectifying potassium channel KCNH2 (Homo sapiens, UniProt Q12809); experiment: Inhibition of human ERG expressed in CHO cells by patch clamp method; format: cell-based
Chain of Voltage-gated inwardly rectifying potassium channel KCNH2 (Q12809 whole entry): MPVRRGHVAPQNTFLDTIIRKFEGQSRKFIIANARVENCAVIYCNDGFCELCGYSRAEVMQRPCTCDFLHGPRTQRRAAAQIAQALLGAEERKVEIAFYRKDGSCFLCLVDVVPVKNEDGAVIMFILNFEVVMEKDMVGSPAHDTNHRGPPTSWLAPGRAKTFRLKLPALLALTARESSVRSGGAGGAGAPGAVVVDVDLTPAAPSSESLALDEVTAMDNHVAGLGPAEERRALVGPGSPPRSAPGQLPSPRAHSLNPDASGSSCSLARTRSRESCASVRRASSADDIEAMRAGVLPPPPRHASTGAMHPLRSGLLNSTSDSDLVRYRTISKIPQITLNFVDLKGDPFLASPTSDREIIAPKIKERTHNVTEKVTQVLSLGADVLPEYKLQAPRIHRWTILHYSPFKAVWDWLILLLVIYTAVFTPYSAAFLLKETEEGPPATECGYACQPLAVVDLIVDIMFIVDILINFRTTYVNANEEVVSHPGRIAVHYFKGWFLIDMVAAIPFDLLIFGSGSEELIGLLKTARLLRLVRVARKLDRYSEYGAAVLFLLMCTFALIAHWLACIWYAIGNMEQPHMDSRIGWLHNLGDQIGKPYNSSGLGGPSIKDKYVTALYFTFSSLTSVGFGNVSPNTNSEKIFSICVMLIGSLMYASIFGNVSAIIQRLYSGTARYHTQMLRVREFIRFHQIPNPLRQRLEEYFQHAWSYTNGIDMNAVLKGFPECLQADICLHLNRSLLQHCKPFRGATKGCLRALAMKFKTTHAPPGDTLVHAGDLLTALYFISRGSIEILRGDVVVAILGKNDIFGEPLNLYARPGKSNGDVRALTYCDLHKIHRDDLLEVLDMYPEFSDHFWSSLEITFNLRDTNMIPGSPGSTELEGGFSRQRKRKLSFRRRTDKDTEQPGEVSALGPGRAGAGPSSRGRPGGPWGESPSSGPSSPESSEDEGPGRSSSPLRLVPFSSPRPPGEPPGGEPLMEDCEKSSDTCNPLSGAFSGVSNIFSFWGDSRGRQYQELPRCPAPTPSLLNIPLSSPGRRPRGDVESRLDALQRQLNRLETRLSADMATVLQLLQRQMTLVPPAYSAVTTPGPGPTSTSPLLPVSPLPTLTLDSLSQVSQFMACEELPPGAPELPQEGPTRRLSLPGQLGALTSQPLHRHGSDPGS

[17] = Effective permeability of compound by PAMPA-BBB assay; format: ADME; conditions: read-out: permeability
[18] = AUC (0 to infinity) in Sprague-Dawley rat at 10 mg/kg, po measured upto 24 hrs by LC-MS/MS analysis; format: ADME, organism-based; parameters: route oral, dose 10 mg/kg, time <=24; conditions: in vivo
[19] = Half life in Sprague-Dawley rat at 10 mg/kg, po measured upto 24 hrs by LC-MS/MS analysis; format: ADME, organism-based; conditions: in vivo
Mus musculus [20] = experiment: Anti-VaD activity against UCCAO-induced spatial memory deficient C57BL/6J mouse model assessed as improvement in spatial learning and memory by measuring reduction in escape latency at 3 mg/kg, po administered for 21 days by Morris water maze test; format: functional, organism-based; conditions: time 21.0 day
Cytochrome P450 2C9 = Cytochrome P450 2C9 (Homo sapiens, UniProt P11712); experiment: Inhibition of CYP2C9 in human liver microsomes in presence of NADPH; format: ADME
Chain of Cytochrome P450 2C9 (P11712 whole entry, the tested form may be a part): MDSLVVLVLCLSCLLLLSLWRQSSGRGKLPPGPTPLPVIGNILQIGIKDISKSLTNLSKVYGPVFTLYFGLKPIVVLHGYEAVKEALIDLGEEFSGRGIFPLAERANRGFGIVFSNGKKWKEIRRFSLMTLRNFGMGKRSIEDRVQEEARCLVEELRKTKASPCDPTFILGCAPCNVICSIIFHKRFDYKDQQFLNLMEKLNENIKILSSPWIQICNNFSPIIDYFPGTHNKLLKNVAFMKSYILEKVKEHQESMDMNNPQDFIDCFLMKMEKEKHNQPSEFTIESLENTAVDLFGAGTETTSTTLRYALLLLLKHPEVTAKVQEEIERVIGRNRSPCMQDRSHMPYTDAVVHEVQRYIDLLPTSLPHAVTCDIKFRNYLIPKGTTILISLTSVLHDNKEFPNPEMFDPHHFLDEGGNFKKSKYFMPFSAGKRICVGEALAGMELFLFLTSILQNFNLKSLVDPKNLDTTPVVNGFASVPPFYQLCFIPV

[21] = target: High affinity cGMP-specific 3',5'-cyclic phosphodiesterase 9A (Homo sapiens, UniProt O76083); experiment: Inhibition of PDE9A2 (181-506 residues) (unknown origin) expressed in Escherichia coli BL21 using [3H]-cAMP substrate incubated for 15 mins by liquid scintillation counting method
[22] = MRT (0 to t) in Sprague-Dawley rat at 2.5 mg/kg, iv measured upto 24 hrs by LC-MS/MS analysis; format: ADME, organism-based; conditions: in vivo
[23] = Aqueous solubility of compound at pH 7.3 by HPLC analysis; format: physicochemical; conditions: aqueous medium
[24] = Tmax in Sprague-Dawley rat at 10 mg/kg, po measured upto 24 hrs by LC-MS/MS analysis; format: ADME, organism-based; conditions: in vivo
Mus musculus [25] = experiment: Anti-VaD activity against UCCAO-induced spatial memory deficient C57BL/6J mouse model assessed as improvement in spatial learning and memory by measuring increase in latency time at 3 mg/kg, po administered for 21 days by passive avoidance test; format: functional, organism-based; conditions: time 21.0 day
Mus musculus [26] = experiment: Anti-VaD activity against UCCAO-induced spatial memory deficient C57BL/6J mouse model assessed as improvement in spatial learning and memory by measuring increased the frequency of platform site crossing at 3 mg/kg, po administered for 21 days by Morris water maze test; format: functional, organism-based; conditions: time 21.0 day
[27] = target: High affinity 3',5'-cyclic-AMP phosphodiesterase 7A (Homo sapiens, UniProt Q13946); experiment: Inhibition of PDE7A1 (130-482 residues) (unknown origin) expressed in Escherichia coli BL21 using [3H]-cAMP substrate incubated for 15 mins by liquid scintillation counting method
[28] = target: Dual specificity calcium/calmodulin-dependent 3',5'-cyclic nucleotide phosphodiesterase 1B (Homo sapiens, UniProt Q01064); experiment: Inhibition of PDE1B (146-506 residues) (unknown origin) expressed in Escherichia coli BL21 using [3H]-cAMP substrate incubated for 15 mins by liquid scintillation counting method
[29] = Protein binding in human plasma; format: ADME, cell-free; conditions: read-out: PPB (converted)
[30] = MRT (0 to t) in Sprague-Dawley rat at 10 mg/kg, po measured upto 24 hrs by LC-MS/MS analysis; format: ADME, organism-based; conditions: in vivo
Cytochrome P450 2C19 = Cytochrome P450 2C19 (Homo sapiens, UniProt P33261); experiment: Inhibition of CYP2C19 in human liver microsomes in presence of NADPH; format: ADME
Chain of Cytochrome P450 2C19 (P33261 whole entry): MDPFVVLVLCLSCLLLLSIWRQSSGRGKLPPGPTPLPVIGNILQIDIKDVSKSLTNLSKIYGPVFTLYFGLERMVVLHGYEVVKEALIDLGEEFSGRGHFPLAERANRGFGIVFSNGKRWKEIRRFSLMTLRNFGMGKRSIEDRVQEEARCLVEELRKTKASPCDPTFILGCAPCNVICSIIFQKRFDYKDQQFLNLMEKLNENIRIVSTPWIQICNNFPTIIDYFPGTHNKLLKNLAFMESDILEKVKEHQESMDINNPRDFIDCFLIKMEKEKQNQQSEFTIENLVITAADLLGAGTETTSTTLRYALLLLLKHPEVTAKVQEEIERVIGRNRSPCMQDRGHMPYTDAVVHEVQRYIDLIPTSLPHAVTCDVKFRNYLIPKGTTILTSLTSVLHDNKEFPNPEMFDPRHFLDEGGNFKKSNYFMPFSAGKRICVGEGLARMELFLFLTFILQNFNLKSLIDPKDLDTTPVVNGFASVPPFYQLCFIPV

Cytochrome P450 3A4 = Cytochrome P450 3A4 (Homo sapiens, UniProt P08684); experiment: Inhibition of CYP3A4 in human liver microsomes using midazolam as substrate in presence of NADPH; format: ADME
[31] = Cmax in Sprague-Dawley rat at 10 mg/kg, po measured upto 24 hrs by LC-MS/MS analysis; format: ADME, organism-based; parameters: route oral, dose 10 mg/kg, time <=24; conditions: in vivo
[32] = Tmax in Sprague-Dawley rat at 2.5 mg/kg, iv measured upto 24 hrs by LC-MS/MS analysis; format: ADME, organism-based; conditions: in vivo
[33] = Cmax in Sprague-Dawley rat at 2.5 mg/kg, iv measured upto 24 hrs by LC-MS/MS analysis; format: ADME, organism-based; parameters: route intravenous, dose 2.5 mg/kg, time <=24; conditions: in vivo
Mus musculus [34] = experiment: Anti-VaD activity against UCCAO-induced spatial memory deficient C57BL/6J mouse model assessed as improvement in spatial learning and memory by measuring increased the residence time in the platform area at 3 mg/kg, po administered for 21 days by Morris water maze test; format: functional, organism-based; conditions: time 21.0 day
[35] = target: cGMP-inhibited 3',5'-cyclic phosphodiesterase 3A (Homo sapiens, UniProt Q14432); experiment: Inhibition of PDE3A (679-1087 residues) (unknown origin) expressed in Escherichia coli BL21 using [3H]-cAMP substrate incubated for 15 mins by liquid scintillation counting method
Chain of cGMP-inhibited 3',5'-cyclic phosphodiesterase 3A (Q14432 whole entry, the tested form may be a part): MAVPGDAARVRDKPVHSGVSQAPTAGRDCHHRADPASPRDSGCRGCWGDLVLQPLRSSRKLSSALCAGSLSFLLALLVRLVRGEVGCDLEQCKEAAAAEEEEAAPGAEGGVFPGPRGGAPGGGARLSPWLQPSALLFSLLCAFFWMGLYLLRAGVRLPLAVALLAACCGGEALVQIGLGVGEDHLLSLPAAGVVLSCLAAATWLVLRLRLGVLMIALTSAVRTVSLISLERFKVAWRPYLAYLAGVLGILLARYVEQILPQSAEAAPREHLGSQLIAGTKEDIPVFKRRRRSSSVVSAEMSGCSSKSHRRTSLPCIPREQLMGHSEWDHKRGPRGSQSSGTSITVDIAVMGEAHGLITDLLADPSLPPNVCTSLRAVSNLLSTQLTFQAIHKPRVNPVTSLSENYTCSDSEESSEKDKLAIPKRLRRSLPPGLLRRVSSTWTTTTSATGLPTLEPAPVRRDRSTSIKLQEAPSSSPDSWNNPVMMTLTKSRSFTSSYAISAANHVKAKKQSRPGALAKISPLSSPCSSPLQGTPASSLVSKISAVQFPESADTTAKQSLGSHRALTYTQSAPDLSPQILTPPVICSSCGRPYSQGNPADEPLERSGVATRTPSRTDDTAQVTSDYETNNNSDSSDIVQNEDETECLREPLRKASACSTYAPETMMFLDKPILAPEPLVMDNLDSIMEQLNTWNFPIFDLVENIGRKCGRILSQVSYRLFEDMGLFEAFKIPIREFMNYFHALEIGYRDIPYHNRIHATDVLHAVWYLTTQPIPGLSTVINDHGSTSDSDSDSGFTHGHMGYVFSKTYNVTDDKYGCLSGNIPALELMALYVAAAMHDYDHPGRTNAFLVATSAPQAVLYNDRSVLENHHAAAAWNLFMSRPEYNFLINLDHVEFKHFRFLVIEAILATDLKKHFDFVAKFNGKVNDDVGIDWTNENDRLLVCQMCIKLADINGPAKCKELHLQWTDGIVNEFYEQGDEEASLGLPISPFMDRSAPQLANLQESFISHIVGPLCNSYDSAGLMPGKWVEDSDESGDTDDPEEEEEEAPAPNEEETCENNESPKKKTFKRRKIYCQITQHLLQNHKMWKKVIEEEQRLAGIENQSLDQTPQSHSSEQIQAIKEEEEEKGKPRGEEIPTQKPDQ

[36] = AUC (0 to t) in Sprague-Dawley rat at 10 mg/kg, po measured upto 24 hrs by LC-MS/MS analysis; format: ADME, organism-based; parameters: route oral, dose 10 mg/kg, time <=24; conditions: in vivo
[37] = Oral bioavailability in Sprague-Dawley rat at 10 mg/kg measured upto 24 hrs by LC-MS/MS analysis; format: ADME, organism-based; conditions: in vivo

With `COc1cc2c(cc1OC)C(=O)C(CC1CCN(Cc3ccccc3)CC1)C2` (stereo not drawn) the Activity (Mus musculus [1]) was “Active”, the Activity (Mus musculus [2]) was “Active” and the Activity (Mus musculus [3]) was “Active”. For the same molecule, the Activity (Mus musculus [4]) was “Active” and the Activity (Mus musculus [5]) was “Active”.
`Nc1nc(Cl)nc2c1ncn2Cc1cc(OCC(F)F)ccn1` gave an IC50 [6] of 0.36 µM.
`Cc1cccc(Cn2cnc3c(N)nc(Cl)nc32)n1` showed an inhibition [7] of 14%.
With `C[C@@H](c1cc(OCC(F)F)ccn1)n1cnc2c(N)nc(Cl)nc21` the AUC(0-inf) [8] was 9420 ng·h/mL, the AUC(0-t) at 24 h [9] was 9410 ng·h/mL and the IC50 [10] was > 10 µM. The IC50 (Cytochrome P450 2D6) was > 25 µM, the Activity (Mus musculus [11]) was “Active” and the logP [12] was 3.84. For the same molecule, the IC50 (Cytochrome P450 1A2) was > 25 µM, the IC50 [13] was > 10 µM and the pKa [14] was 3.69. For the same molecule, the half-life [15] was 2.36 h, the IC50 [16] was 18 µM and the Papp [17] was 6 ×10⁻⁶ cm/s. For the same molecule, the AUC(0-inf) [18] was 17600 ng·h/mL, the half-life [19] was 2.82 h and the Activity (Mus musculus [20]) was “Active”. For the same molecule, the IC50 (Cytochrome P450 2C9) was > 25 µM, the IC50 [21] was > 10 µM and the MRT last at 24 h [22] was 4.48 h. The solubility [23] was 108 µg/mL (≈ 304 µM), the Tmax [24] was 4 h and the Activity (Mus musculus [25]) was “Active”. For the same molecule, the Activity (Mus musculus [26]) was “Active”, the IC50 [27] was > 10 µM and the IC50 [28] was > 10 µM. For the same molecule, the fraction unbound [29] was 0.22, the MRT last at 24 h [30] was 7.2 h and the IC50 (Cytochrome P450 2C19) was > 25 µM. The IC50 (Cytochrome P450 3A4) was > 25 µM, the Cmax [31] was 1940 ng/mL and the Tmax [32] was 8.4 min. The Cmax [33] was 2190 ng/mL, the Activity (Mus musculus [34]) was “Active” and the IC50 [35] was > 10 µM. For the same molecule, the AUC(0-t) at 24 h [36] was 17500 ng·h/mL and the bioavailability [37] was 47%.
In the case of `Nc1nc(Cl)nc2c1ncn2Cc1ccccn1`, the inhibition [7] is reported as 24%.
